Results taken from patent US20260027101A1, “BACTERIAL TOPOISOMERASE INHIBITORS” (priority 2022, published 2026).
Converted amounts (≈) assume the structure as drawn. Where two headings read alike, the source gives them in different places.

Tests used:
Assay type in all cases: cell-based
[1] = tested on: Salmonella enterica 14028 ΔtolC (efflux-deficient strain); assay: microbe, parasite or virus in culture; details: for MIC: Salmonella enterica, read-out: MIC against Salmonella enterica 14028 ΔtolC
Protocol: (§1) Minimum inhibitory concentrations (MICs) were determined in triplicate according to Clinical and Laboratory Standards Institute (CLSI) guidelines using one or more strains of S. aureus or selected Gram-negative bacteria. […] Compounds were also assayed using a USA300 (Hidron, A. I., et al., Emergence of Community-Acquired Meticillin-Resistant Staphylococcus aureus Strain USA300 as a Cause of Necrotising Community-Onset Pneumonia. Lancet Infect. Dis. 2009, 9. 384-392) isolate of MRSA as well as a S. aureus strain isolated from a cystic fibrosis patient.

[2] = tested on: Staphylococcus aureus M121K (29213-derived strain, GyrA substitution); assay: microbe, parasite or virus in culture; details: read-out: MIC against Staphylococcus aureus M121K
Protocol: as §1

[3] = tested on: Staphylococcus aureus CF isolate; assay: MIC, S. aureus cystic fibrosis isolate (CLSI); details: read-out: MIC against Staphylococcus aureus CF isolate
Protocol: as §1

[4] = tested on: Staphylococcus aureus D83N (29213-derived strain, GyrA substitution); assay: microbe, parasite or virus in culture; details: read-out: MIC against Staphylococcus aureus D83N
Protocol: as §1

[5] = tested on: Pseudomonas aeruginosa ATCC 27853; assay: MIC, Pseudomonas aeruginosa ATCC 27853
Protocol: as §1

[6] = tested on: Salmonella enterica ATCC 14028; assay: MIC, Salmonella enterica ATCC 14028
Protocol: as §1

[7] = tested on: Staphylococcus aureus ATCC 29213; assay: MIC, S. aureus ATCC 29213 (CLSI)
Protocol: as §1

[8] = tested on: Staphylococcus aureus USA300 (MRSA isolate); assay: MIC, S. aureus USA300 MRSA isolate (CLSI); details: read-out: MIC against Staphylococcus aureus USA300
Protocol: as §1

[9] = tested on: Escherichia coli ATCC 25922; assay: MIC, Escherichia coli ATCC 25922
Protocol: as §1

[10] = tested on: Acinetobacter baumanii ATCC 19606; assay: MIC, Acinetobacter baumanii ATCC 19606; details: Acinetobacter baumannii
Protocol: as §1

[11] = ATCC27853, read-out: MIC against Pseudomonas aeruginosa ATCC 27853
[12] = ATCC14028, read-out: MIC against Salmonella enterica ATCC 14028
[13] = ATCC29213, read-out: MIC against Staphylococcus aureus ATCC 29213
[14] = ATCC25922, read-out: MIC against Escherichia coli ATCC 25922
[15] = ATCC19606, read-out: MIC against Acinetobacter baumanii ATCC 19606
[16] = ATCC29213, strain ATCC 29213, triplicate, CLSI, read-out: MIC against Staphylococcus aureus ATCC 29213
[17] = USA300 MRSA isolate, ciprofloxacin-resistant
[18] = ATCC25922, strain ATCC 25922, read-out: MIC against Escherichia coli ATCC 25922
[19] = ATCC19606, strain ATCC 19606, read-out: MIC against Acinetobacter baumanii ATCC 19606
[20] = ATCC27853, strain ATCC 27853, read-out: MIC against Pseudomonas aeruginosa ATCC 27853
[21] = ATCC14028, strain ATCC 14028, read-out: MIC against Salmonella enterica ATCC 14028

Row | Compound | MIC [1] | MIC [2] | MIC [3] | MIC [4] | MIC [5, 11] | MIC [6, 12] | MIC [7, 13] | MIC [8] | other results
1 | COc1ccc2ncc(F)c(CCN3CCC(C(O)Cc4ccc5c(c4)OCC(=O)N5)CC3)c2n1 (stereo not drawn) [Example 27, 7-(2-(1-(2-(3-fluoro-6-methoxy-1,5-naphthyridin-4-yl)ethyl)piperidin-4-yl)-2-hydroxyethyl)-2H-benzo[b][1,4]oxazin-3(4H)-one] | ≤ 0.125 µg/mL | 32 µg/mL (≈ 66.6 µM) | – | – | – | – | – | – | –
2 | COc1ccc2ncc(F)c(CCN3CCC(/C=C/c4ccc(C)cc4)CC3)c2n1 [Example 1, (E)-7-fluoro-2-methoxy-8-(2-(4-(4-methylstyryl)piperidin-1-yl)ethyl)-1,5-naphthyridine] | 0.5 to 1 µg/mL (≈ 1.23 to 2.47 µM) | 2 to 4 µg/mL (≈ 4.93 to 9.86 µM) | – | – | – | – | – | – | –
3 | COc1ccc2ncc(F)c(CCN3CCC(C(=O)Cc4ccc5c(c4)OCCO5)CC3)c2n1 [Example 23, 2-(2,3-dihydrobenzo[b][1,4]dioxin-6-yl)-1-(1-(2-(3-fluoro-6-methoxy-1,5-naphthyridin-4-yl)ethyl)piperidin-4-yl)ethan-1-one] | – | > 32 µg/mL | 8 µg/mL (≈ 17.2 µM) | 32 µg/mL (≈ 68.7 µM) | > 64 µg/mL | > 64 µg/mL | – | – | –
4 | COc1ccc2ncc(F)c(CCN3CCC(C(=O)Cc4ccc(C)cc4)CC3)c2n1 [Example 22, 1-(1-(2-(3-fluoro-6-methoxy-1,5-naphthyridin-4-yl)ethyl)piperidin-4-yl)-2-(p-tolyl)ethan-1-one] | 0.5 µg/mL (≈ 1.19 µM) | 8 µg/mL (≈ 19 µM) | 0.125 to 0.5 µg/mL (≈ 0.297 to 1.19 µM) | 4 µg/mL (≈ 9.49 µM) | > 64 µg/mL | 64 µg/mL (≈ 152 µM) | 0.125 µg/mL (≈ 0.297 µM) | 0.125 to 0.5 µg/mL (≈ 0.297 to 1.19 µM) | MIC [9, 14]: 16 µg/mL (≈ 38 µM); MIC [10, 15]: 32 µg/mL (≈ 75.9 µM)
5 | COc1ccc2ncc(F)c(CCN3CCC(/C=C/c4ccc5c(c4)NC(=O)CO5)CC3)c2n1 [Example 3, (E)-6-(2-(1-(2-(3-fluoro-6-methoxy-1,5-naphthyridin-4-yl)ethyl)piperidin-4-yl)vinyl)-2H-benzo[b][1,4]oxazin-3(4H)-one] | 0.25 µg/mL (≈ 0.541 µM) | 16 µg/mL (≈ 34.6 µM) | 1 µg/mL (≈ 2.16 µM) | 16 µg/mL (≈ 34.6 µM) | 4 µg/mL (≈ 8.65 µM) | 16 µg/mL (≈ 34.6 µM) | 0.5 µg/mL (≈ 1.08 µM) | ≤ 0.25 µg/mL | MIC [9, 14]: 4 µg/mL (≈ 8.65 µM); MIC [10, 15]: 8 µg/mL (≈ 17.3 µM)
6 | COc1ccc2ncc(F)c(CCN3CCC(C(O)Cc4ccc(C)cc4)CC3)c2n1 (stereo not drawn) [Example 25, 1-(1-(2-(3-fluoro-6-methoxy-1,5-naphthyridin-4-yl)ethyl)piperidin-4-yl)-2-(p-tolyl)ethan-1-ol] | 1 µg/mL (≈ 2.36 µM) | 8 µg/mL (≈ 18.9 µM) | – | 8 µg/mL (≈ 18.9 µM) | – | – | – | – | –
7 | COc1ccc2ncc(F)c(CCN3CCC([C@H](O)[C@@H](O)c4ccc5c(c4)NC(=O)CO5)CC3)c2n1 [Example 9, 6-((1S,2S)-2-(1-(2-(3-fluoro-6-methoxy-1,5-naphthyridin-4-yl)ethyl)piperidin-4-yl)-1,2-dihydroxyethyl)-2H-benzo[b][1,4]oxazin-3(4H)-one] | 0.25 µg/mL (≈ 0.503 µM) | > 32 µg/mL | – | > 32 µg/mL | – | – | – | – | –
8 | COc1ccc2ncc(F)c(CCN3CCC([C@@H]4OC(=O)O[C@H]4c4ccc(C)cc4)CC3)c2n1 [Example 31, (4S,5S)-4-(1-(2-(3-fluoro-6-methoxy-1,5-naphthyridin-4-yl)ethyl)piperidin-4-yl)-5-(p-tolyl)-1,3-dioxolan-2-one] | 8 µg/mL (≈ 17.2 µM) | > 32 µg/mL | – | > 32 µg/mL | – | – | – | – | MIC [7, 16]: 2 µg/mL (≈ 4.3 µM); MIC [8, 17]: 2 µg/mL (≈ 4.3 µM); MIC ([3]; isolate from individual with cystic fibrosis): 4 µg/mL (≈ 8.59 µM); MIC [9, 18]: > 64 µg/mL; MIC [10, 19]: 64 µg/mL (≈ 137 µM); MIC [5, 20]: > 64 µg/mL; MIC [6, 21]: > 64 µg/mL
9 | COc1ccc2ncc(F)c(CCN3CCC(/C=C/c4ccc5c(c4)OCCO5)CC3)c2n1 [Example 2, (E)-8-(2-(4-(2-(2,3-dihydrobenzo[b][1,4]dioxin-6-yl)vinyl)piperidin-1-yl)ethyl)-7-fluoro-2-methoxy-1,5-naphthyridine] | – | 2 µg/mL (≈ 4.45 µM) | 0.5 µg/mL (≈ 1.11 µM) | 2 µg/mL (≈ 4.45 µM) | 64 µg/mL (≈ 142 µM) | 64 µg/mL (≈ 142 µM) | 0.25 µg/mL (≈ 0.556 µM) | 0.5 µg/mL (≈ 1.11 µM) | MIC against Salmonella enterica 14028 ΔtolC ([1]; efflux-deficient strain): 0.125 µg/mL (≈ 0.278 µM); MIC [9, 14]: 8 µg/mL (≈ 17.8 µM); MIC [10, 15]: 8 µg/mL (≈ 17.8 µM)
10 | COc1ccc2ncc(F)c(CCN3CCC(/C=C\c4ccc(C)cc4)CC3)c2n1 [Example 10, (Z)-7-fluoro-2-methoxy-8-(2-(4-(4-methylstyryl)piperidin-1-yl)ethyl)-1,5-naphthyridine] | 8 µg/mL (≈ 19.7 µM) | 32 µg/mL (≈ 78.9 µM) | – | 32 µg/mL (≈ 78.9 µM) | – | – | – | – | –
11 | O=c1ccc2ncc(=O)n3c2n1C[C@H]3CN1CCC(NCc2cc3c(cn2)OCCC3)CC1 [gepotidacin, reference compound] | 0.125 to 0.5 µg/mL (≈ 0.279 to 1.11 µM) | 8 to 32 µg/mL (≈ 17.8 to 71.3 µM) | 0.125 to 0.5 µg/mL (≈ 0.279 to 1.11 µM) | 4 to 32 µg/mL (≈ 8.92 to 71.3 µM) | – | – | – | – | MIC [7, 16]: 0.25 to 1 µg/mL (≈ 0.557 to 2.23 µM); MIC [8, 17]: 0.125 to 1 µg/mL (≈ 0.279 to 2.23 µM); MIC [9, 18]: 0.5 to 2 µg/mL (≈ 1.11 to 4.46 µM); MIC [10, 19]: 32 to 64 µg/mL (≈ 71.3 to 143 µM); MIC [5, 20]: 2 to 16 µg/mL (≈ 4.46 to 35.7 µM); MIC [6, 21]: 2 to 8 µg/mL (≈ 4.46 to 17.8 µM)
12 | COc1ccc2ncc(F)c(CCN3CCC(C(O)C(O)c4ccc5c(c4)NC(=O)CO5)CC3)c2n1 (single isomer, unassigned) [Example 15, 6-(-2-(1-(2-(3-fluoro-6-methoxy-1,5-naphthyridin-4-yl)ethyl)piperidin-4-yl)-1,2-dihydroxyethyl)-2H-benzo[b][1,4]oxazin-3(4H)-one] | 0.5 µg/mL (≈ 1.01 µM) | – | – | – | – | – | – | – | –
13 | CN[C@H](CC(C)C)C(=O)N[C@H]1C(=O)N[C@@H](CC(N)=O)C(=O)N[C@H]2C(=O)N[C@H]3C(=O)N[C@H](C(=O)N[C@H](C(=O)O)c4cc(O)cc(O)c4-c4cc3ccc4O)[C@H](O)c3ccc(c(Cl)c3)Oc3cc2cc(c3O[C@@H]2O[C@H](CO)[C@@H](O)[C@H](O)[C@H]2O[C@H]2C[C@](C)(N)[C@H](O)[C@H](C)O2)Oc2ccc(cc2Cl)[C@H]1O [vancomycin, reference compound] | – | 1 µg/mL (≈ 0.69 µM) | 1 µg/mL (≈ 0.69 µM) | 1 µg/mL (≈ 0.69 µM) | – | – | 1 to 2 µg/mL (≈ 0.69 to 1.38 µM) | 1 µg/mL (≈ 0.69 µM) | –
14 | COc1ccc2ncc(F)c(CCN3CCC(/C=C\c4ccc5c(c4)OCCO5)CC3)c2n1 [Example 11, (Z)-8-(2-(4-(2-(2,3-dihydrobenzo[b][1,4]dioxin-6-yl)vinyl)piperidin-1-yl)ethyl)-7-fluoro-2-methoxy-1,5-naphthyridine] | 4 µg/mL (≈ 8.9 µM) | > 16 µg/mL | 9 µg/mL (≈ 20 µM) | > 16 µg/mL | 64 µg/mL (≈ 142 µM) | > 64 µg/mL | 8 µg/mL (≈ 17.8 µM) | 8 µg/mL (≈ 17.8 µM) | MIC [9, 14]: > 64 µg/mL; MIC [10, 15]: 64 µg/mL (≈ 142 µM)
15 | COc1ccc2ncc(F)c(CCN3CCC(CCc4ccc5c(c4)OCCO5)CC3)c2n1 [Example 20, 8-(2-(4-(2-(2,3-dihydrobenzo[b][1,4]dioxin-6-yl)ethyl)piperidin-1-yl)ethyl)-7-fluoro-2-methoxy-1,5-naphthyridine] | 0.25 µg/mL (≈ 0.554 µM) | > 8 µg/mL | – | 8 µg/mL (≈ 17.7 µM) | – | – | – | – | –
